Laboratory results taken from the supplement of paper PMC10307832.

Columns and labels:
Assay in all cases: relative viability (nuclei count vs DMSO), 5 days (fraction); higher = more cells survive
NCI-H2087 = system: NCI-H2087
Outline: (§1)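 Lung cancer cell lines in 1536-well plates got either a single drug or a fixed anchor-drug dose together with five library-drug doses (not always all listed) in √10 steps, by pin tool, on the day after seeding. Nuclei were counted after 5 days, and relative viability is the treated-to-vehicle ratio of nuclei counts. Values are medians of duplicate plates.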

NCI-H1299 = system: NCI-H1299
Outline: as §1

HCC-44 = system: HCC-44
Outline: as §1

IA-LM = system: IA-LM
Outline: as §1

EBC-1 = system: EBC-1
Outline: as §1

NCI-H322M = system: NCI-H322M
Outline: as §1

A549 = system: A549
Outline: as §1

NCI-H1703 = system: NCI-H1703
Outline: as §1

HCC-78 = system: HCC-78
Outline: as §1

Calu-6 = system: Calu-6
Outline: as §1

NCI-H1563 = system: NCI-H1563
Outline: as §1

Cc1csc(=NC2CCCCC2)n1/N=C/c1ccc(O)c(O)c1O [MIM1] + CC1(C)CCC(c2ccc(Cl)cc2)=C(CN2CCN(c3ccc(C(=O)NS(=O)(=O)c4ccc(N[C@H](CCN5CCOCC5)CSc5ccccc5)c(S(=O)(=O)C(F)(F)F)c4)cc3)CC2)C1 [Navitoclax] (partner 0.5 µM)
relative viability (NCI-H2087; first compound 0.2 µM): 1.05
relative viability (NCI-H2087; first compound 0.6325 µM): 0.921
relative viability (NCI-H2087; first compound 2 µM): 1.03
relative viability (NCI-H2087; first compound 6.325 µM): 0.928
relative viability (NCI-H2087; first compound 20 µM): 0.382
relative viability (NCI-H1299; first compound 0.2 µM): 1.06
relative viability (NCI-H1299; first compound 0.6325 µM): 1.07
relative viability (NCI-H1299; first compound 2 µM): 1.04
relative viability (NCI-H1299; first compound 6.325 µM): 1.05
relative viability (NCI-H1299; first compound 20 µM): 0.974
relative viability (HCC-44; first compound 0.2 µM): 0.93
relative viability (HCC-44; first compound 0.6325 µM): 1.01
relative viability (HCC-44; first compound 2 µM): 0.74
relative viability (HCC-44; first compound 6.325 µM): 0.612
relative viability (HCC-44; first compound 20 µM): 0.277
relative viability (IA-LM; first compound 0.2 µM): 0.588
relative viability (IA-LM; first compound 0.6325 µM): 0.713
relative viability (IA-LM; first compound 2 µM): 0.721
relative viability (IA-LM; first compound 6.325 µM): 0.195
relative viability (IA-LM; first compound 20 µM): 0.0808
relative viability (EBC-1; first compound 0.2 µM): 0.417
relative viability (EBC-1; first compound 0.6325 µM): 0.475
relative viability (EBC-1; first compound 2 µM): 0.367
relative viability (EBC-1; first compound 6.325 µM): 0.227
relative viability (EBC-1; first compound 20 µM): 0.166
relative viability (NCI-H322M; first compound 0.2 µM): 1.13
relative viability (NCI-H322M; first compound 0.6325 µM): 1.29
relative viability (NCI-H322M; first compound 2 µM): 1.31
relative viability (NCI-H322M; first compound 6.325 µM): 1.13
relative viability (NCI-H322M; first compound 20 µM): 1.37
relative viability (A549; first compound 0.2 µM): 1.17
relative viability (A549; first compound 0.6325 µM): 1.24
relative viability (A549; first compound 2 µM): 1.3
relative viability (A549; first compound 6.325 µM): 0.843
relative viability (A549; first compound 20 µM): 0.0781
relative viability (NCI-H1703; first compound 0.2 µM): 0.91
relative viability (NCI-H1703; first compound 0.6325 µM): 1.15
relative viability (NCI-H1703; first compound 2 µM): 1.03
relative viability (NCI-H1703; first compound 6.325 µM): 0.135
relative viability (NCI-H1703; first compound 20 µM): 0.117
relative viability (HCC-78; first compound 0.2 µM): 0.899
relative viability (HCC-78; first compound 0.6325 µM): 0.731
relative viability (HCC-78; first compound 2 µM): 0.668
relative viability (HCC-78; first compound 6.325 µM): 0.562
relative viability (HCC-78; first compound 20 µM): 0.739
relative viability (Calu-6; first compound 0.2 µM): 0.772
relative viability (Calu-6; first compound 0.6325 µM): 0.93
relative viability (Calu-6; first compound 2 µM): 0.857
relative viability (Calu-6; first compound 6.325 µM): 0.205
relative viability (Calu-6; first compound 20 µM): 0.135

Cc1csc(=NC2CCCCC2)n1/N=C/c1ccc(O)c(O)c1O [MIM1] + CC(C)C[C@H](NC(=O)[C@H](Cc1ccccc1)NC(=O)c1cnccn1)B(O)O [Bortezomib] (partner 0.002 µM)
relative viability (NCI-H1563; first compound 0.2 µM): 0.894
relative viability (NCI-H1563; first compound 0.6325 µM): 0.96
relative viability (NCI-H1563; first compound 2 µM): 0.744
relative viability (NCI-H1563; first compound 6.325 µM): 0.563
relative viability (NCI-H1563; first compound 20 µM): 0.465
relative viability (NCI-H2087; first compound 0.2 µM): 0.753
relative viability (NCI-H2087; first compound 0.6325 µM): 0.743
relative viability (NCI-H2087; first compound 2 µM): 0.666
relative viability (NCI-H2087; first compound 6.325 µM): 0.586
relative viability (NCI-H2087; first compound 20 µM): 0.498
relative viability (NCI-H1299; first compound 0.2 µM): 1.01
relative viability (NCI-H1299; first compound 0.6325 µM): 1.03
relative viability (NCI-H1299; first compound 2 µM): 0.999
relative viability (NCI-H1299; first compound 6.325 µM): 0.965
relative viability (NCI-H1299; first compound 20 µM): 0.994
relative viability (HCC-44; first compound 0.2 µM): 0.879
relative viability (HCC-44; first compound 0.6325 µM): 0.816
relative viability (HCC-44; first compound 2 µM): 0.84
relative viability (HCC-44; first compound 6.325 µM): 0.446
relative viability (HCC-44; first compound 20 µM): 0.141
relative viability (IA-LM; first compound 0.2 µM): 0.754
relative viability (IA-LM; first compound 0.6325 µM): 0.792
relative viability (IA-LM; first compound 2 µM): 0.783
relative viability (IA-LM; first compound 6.325 µM): 0.275
relative viability (IA-LM; first compound 20 µM): 0.0874
relative viability (EBC-1; first compound 0.2 µM): 0.496
relative viability (EBC-1; first compound 0.6325 µM): 0.569
relative viability (EBC-1; first compound 2 µM): 0.647
relative viability (EBC-1; first compound 6.325 µM): 0.324
relative viability (EBC-1; first compound 20 µM): 0.242
relative viability (NCI-H322M; first compound 0.2 µM): 1.21
relative viability (NCI-H322M; first compound 0.6325 µM): 1.2
relative viability (NCI-H322M; first compound 2 µM): 1.35
relative viability (NCI-H322M; first compound 6.325 µM): 1.17
relative viability (NCI-H322M; first compound 20 µM): 1.08
relative viability (NCI-H1703; first compound 0.2 µM): 0.386
relative viability (NCI-H1703; first compound 0.6325 µM): 0.358
relative viability (NCI-H1703; first compound 2 µM): 0.318
relative viability (NCI-H1703; first compound 6.325 µM): 0.155
relative viability (NCI-H1703; first compound 20 µM): 0.133
relative viability (HCC-78; first compound 0.2 µM): 0.491
relative viability (HCC-78; first compound 0.6325 µM): 0.555
relative viability (HCC-78; first compound 2 µM): 0.559
relative viability (HCC-78; first compound 6.325 µM): 0.418
relative viability (HCC-78; first compound 20 µM): 0.4
relative viability (Calu-6; first compound 0.2 µM): 1.05
relative viability (Calu-6; first compound 0.6325 µM): 1.1
relative viability (Calu-6; first compound 2 µM): 0.923
relative viability (Calu-6; first compound 6.325 µM): 0.289
relative viability (Calu-6; first compound 20 µM): 0.203
